Data published in ChEMBL document CHEMBL5528012, “Discovery of novel deoxyvasicinone derivatives with benzenesulfonamide substituents as multifunctional agents against Alzheimer's disease” (Eur J Med Chem, 2024).
Calls of active or inactive are those of the source. The rule behind the calls is not given here.

Assays:
Cholinesterase = Cholinesterase (Equus caballus, UniProt P81908); assay: Inhibition of equine serum BuChE using S-butyrylthiocholine iodide as substrate pre-incubated for 30 mins followed by substrate addition and measured after 5 mins by DTNB reagent based Ellman's method
Sequence of Cholinesterase (P81908 whole entry): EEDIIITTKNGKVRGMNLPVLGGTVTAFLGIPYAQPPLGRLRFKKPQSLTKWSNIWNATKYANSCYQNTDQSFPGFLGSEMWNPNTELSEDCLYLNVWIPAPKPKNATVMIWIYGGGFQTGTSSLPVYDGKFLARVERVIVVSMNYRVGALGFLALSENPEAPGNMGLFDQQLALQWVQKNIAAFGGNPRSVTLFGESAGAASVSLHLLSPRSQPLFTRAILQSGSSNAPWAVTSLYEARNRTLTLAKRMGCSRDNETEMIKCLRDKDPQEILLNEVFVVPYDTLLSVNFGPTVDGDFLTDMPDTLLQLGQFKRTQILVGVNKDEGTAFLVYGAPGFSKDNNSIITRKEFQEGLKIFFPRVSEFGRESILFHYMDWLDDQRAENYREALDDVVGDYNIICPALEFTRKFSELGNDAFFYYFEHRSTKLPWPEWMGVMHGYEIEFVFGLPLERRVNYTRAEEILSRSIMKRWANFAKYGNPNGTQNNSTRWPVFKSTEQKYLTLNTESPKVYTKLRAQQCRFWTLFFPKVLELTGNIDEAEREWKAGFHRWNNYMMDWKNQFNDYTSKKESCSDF

Acetylcholinesterase [1] = target: T1, Acetylcholinesterase (Electrophorus electricus, UniProt O42275); assay: Inhibition of electric eel AChE using acetylthiocholine iodide as substrate pre-incubated for 30 mins followed by substrate addition and measured after 5 mins by DTNB reagent based Ellman's method
T1 sequence (O42275 whole entry): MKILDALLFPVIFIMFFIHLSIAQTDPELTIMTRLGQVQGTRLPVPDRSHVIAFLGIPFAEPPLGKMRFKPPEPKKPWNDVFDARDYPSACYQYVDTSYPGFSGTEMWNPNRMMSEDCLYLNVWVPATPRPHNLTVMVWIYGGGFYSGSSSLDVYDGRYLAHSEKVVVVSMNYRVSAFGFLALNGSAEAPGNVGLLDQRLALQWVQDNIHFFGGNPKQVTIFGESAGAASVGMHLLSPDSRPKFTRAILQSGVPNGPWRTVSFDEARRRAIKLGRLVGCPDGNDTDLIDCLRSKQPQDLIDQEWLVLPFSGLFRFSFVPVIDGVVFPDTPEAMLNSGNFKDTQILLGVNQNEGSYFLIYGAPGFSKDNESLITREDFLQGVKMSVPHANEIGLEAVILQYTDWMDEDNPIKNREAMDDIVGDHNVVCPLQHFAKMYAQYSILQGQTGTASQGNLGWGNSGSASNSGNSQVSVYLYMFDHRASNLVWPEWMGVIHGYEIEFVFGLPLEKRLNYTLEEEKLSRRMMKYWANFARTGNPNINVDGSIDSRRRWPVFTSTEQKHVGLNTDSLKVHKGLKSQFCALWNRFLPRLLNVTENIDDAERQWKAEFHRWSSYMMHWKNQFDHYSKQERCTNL

[2] = Hepatotoxicity in mouse AML12 cells assessed as reduction in cell viability at 20 to 100 uM incubated for 24 hrs by MTT assay; assay type: toxicity, cell-based; settings: aml12, 24 h, dose 20-100 µM
[3] = Hepatotoxicity in human HepG2 cells assessed as reduction in cell viability at 20 to 100 uM incubated for 24 hrs by MTT assay; assay type: toxicity, cell-based; settings: hepg2, 24 h, dose 20-100 µM
Acetylcholinesterase [4] = target: T1, Acetylcholinesterase; assay: Inhibition of electric eel AChE
in vitro = settings: PAMPA, pH 7.4
Description: Permeability of the compound at 30 to 50 uM at pH 7.4 by PAMPA-BBB assay

[5] = Toxicity in C57BL mouse assessed as change in body weight at 10 to 30 mg/kg, po measured after 7 days; assay type: organism-based; settings: in vivo, 168 h, dose 10-30 mg/kg, time 7 day
BV-2 [6] = assay: Anti-neuroinflammatory activity against LPS-induced mouse BV-2 cells assessed as inhibition of NO production pre-incubated for 1 hr followed by LPS addition and measured after 24 hrs by Griess reagent based assay; assay type: functional, cell-based
[7] = Acute toxicity in C57BL mouse assessed as heart damage upto 2000 mg/kg, po administered as single dose and measured after 2 weeks by hematoxylin and eosin staining based analysis; assay type: organism-based; settings: in vivo, 336 h
Mus musculus [8] = assay: Antialzheimer activity in scopolamine-induced C57BL mouse model assessed as decrease in escape latency at 10 to 30 mg/kg, po administered for 7 days followed by scopolamine administration and measured after 4 days by Morris water maze test; assay type: functional, organism-based; settings: dose 10-30 mg/kg, time 11.0 day
Mus musculus [9] = assay: Antialzheimer activity in scopolamine-induced C57BL mouse model assessed as increase in residence time in platform area at 30 mg/kg, po administered for 7 days followed by scopolamine administration and measured after 5 days by Morris water maze test; assay type: functional, organism-based; settings: time 12.0 day
[10] = Metal chelating activity assessed as Cu2+-compound complex formation by measuring drop in intensity of absorption curve at 50 uM incubated for 1 hr in presence of CuCl2 by UV-Visible spectrophotometry
[11] = Metal chelating activity assessed as Zn2+-compound complex formation by measuring blue shift in maximum absorption wavelength at 50 uM incubated for 1 hr in presence of ZnCl2 by UV-Visible spectrophotometry
Mus musculus [12] = assay: Antialzheimer activity in scopolamine-induced C57BL mouse model assessed as increase in crossing frequency in platform area at 30 mg/kg, po administered for 7 days followed by scopolamine administration and measured after 5 days by Morris water maze test; assay type: functional, organism-based; settings: time 12.0 day
BV-2 [13] = assay: Anti-neuroinflammatory activity against LPS-induced mouse BV-2 cells assessed as decrease in iNOS protein expression pre-incubated for 1 hr followed by LPS addition and measured after 24 hrs by Western blotting analysis; assay type: functional, cell-based; settings: dose 1-10 µM, time 25.0 hrs
Mus musculus [14] = assay: Antialzheimer activity in scopolamine-induced C57BL mouse model assessed as prevention of irregular cellular arrangements in cortical cells of hippocampal region at 10 to 30 mg/kg, po administered for 7 days followed by scopolamine administration by hematoxylin and eosin staining based analysis; assay type: functional, organism-based; settings: dose 10-30 mg/kg
BV-2 [15] = assay: Cytotoxicity against mouse BV-2 cells assessed as reduction in cell viability at 20 to 50 uM incubated for 24 hrs by MTT assay; assay type: toxicity, cell-based; settings: bv-2, 24 h, dose 20-50 µM
Mus musculus [16] = assay: Antialzheimer activity in scopolamine-induced C57BL mouse model assessed as prevention of blurred borders in cortical cells of hippocampal region at 10 to 30 mg/kg, po administered for 7 days followed by scopolamine administration by hematoxylin and eosin staining based analysis; assay type: functional, organism-based; settings: dose 10-30 mg/kg
Acetylcholinesterase [17] = target: T1, Acetylcholinesterase; assay: Inhibition of electric eel AChE assessed as dissociation constant using acetylthiocholine iodide as substrate pre-incubated for 30 mins followed by substrate addition and measured after 5 mins by DTNB reagent based Ellman's method
PC-12 [18] = assay: Cytotoxicity against rat PC12 cells assessed as reduction in cell viability at 20 to 50 uM incubated for 24 hrs by MTT assay; assay type: toxicity, cell-based; settings: pc-12, 24 h, dose 20-50 µM
[19] = target: Acetylcholinesterase (Electrophorus electricus) (UniProt O42275); assay: Mixed type inhibition of electric eel AChE using acetylthiocholine iodide as substrate pre-incubated for 30 mins followed by substrate addition and measured after 5 mins by DTNB reagent based Ellman's method; settings: dose 0-0.4 µM, time 35.0 min
Sequence of Acetylcholinesterase (Electrophorus electricus) (O42275 24-633 limits assumed): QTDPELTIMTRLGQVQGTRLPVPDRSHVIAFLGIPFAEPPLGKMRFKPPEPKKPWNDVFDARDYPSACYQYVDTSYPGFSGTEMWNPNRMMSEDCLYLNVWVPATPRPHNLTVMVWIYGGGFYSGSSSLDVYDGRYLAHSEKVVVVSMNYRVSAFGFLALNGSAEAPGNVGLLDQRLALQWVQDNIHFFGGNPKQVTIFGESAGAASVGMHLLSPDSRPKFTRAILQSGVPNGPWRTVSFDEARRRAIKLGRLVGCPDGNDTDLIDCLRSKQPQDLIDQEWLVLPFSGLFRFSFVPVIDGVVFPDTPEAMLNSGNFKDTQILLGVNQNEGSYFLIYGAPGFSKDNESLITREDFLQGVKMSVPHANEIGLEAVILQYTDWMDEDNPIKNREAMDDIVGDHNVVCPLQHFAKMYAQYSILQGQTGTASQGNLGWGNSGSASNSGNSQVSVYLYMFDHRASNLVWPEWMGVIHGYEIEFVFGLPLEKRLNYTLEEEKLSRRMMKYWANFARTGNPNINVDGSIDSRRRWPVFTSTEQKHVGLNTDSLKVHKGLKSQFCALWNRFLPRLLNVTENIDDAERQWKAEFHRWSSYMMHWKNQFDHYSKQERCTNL

BV-2 [20] = assay: Anti-neuroinflammatory activity against LPS-induced mouse BV-2 cells assessed as inhibition of IL-1beta production pre-incubated for 1 hr followed by LPS addition and measured after 24 hrs by ELISA; assay type: functional, cell-based
Mus musculus [21] = assay: Antialzheimer activity in scopolamine-induced C57BL mouse model assessed as effect on swimming speed at 10 to 30 mg/kg, po administered for 7 days followed by scopolamine administration and measured after 4 days by Morris water maze test; assay type: functional, organism-based; settings: dose 10-30 mg/kg, time 11.0 day
[22] = Metal chelating activity assessed as Cu2+-compound complex formation by measuring red shift in maximum absorption wavelength at 50 uM incubated for 1 hr in presence of CuCl2 by UV-Visible spectrophotometry
[23] = Acute toxicity in C57BL mouse assessed as liver damage upto 2000 mg/kg, po administered as single dose and measured after 2 weeks by hematoxylin and eosin staining based analysis; assay type: organism-based; settings: in vivo, 336 h
BV-2 [24] = assay: Anti-neuroinflammatory activity against LPS-induced mouse BV-2 cells assessed as inhibition of TNF-alpha production pre-incubated for 1 hr followed by LPS addition and measured after 24 hrs by ELISA; assay type: functional, cell-based
[25] = Acute toxicity in C57BL mouse assessed as lung damage upto 2000 mg/kg, po administered as single dose and measured after 2 weeks by hematoxylin and eosin staining based analysis; assay type: organism-based; settings: in vivo, 336 h
PC-12 [26] = assay: Neuroprotective activity against H2O2-induced cell death in rat PC12 cells assessed as increase in survival rate pre-incubated for 3 hrs followed by H2O2 addition and measured after 24 hrs by MTT assay; assay type: functional, cell-based; settings: dose 1-20 µM, time 27.0 hrs
PC-12 [27] = assay: Antioxidant activity in H2O2-induced rat PC12 cells assessed as reduction in intracellular ROS level incubated for 1 hr followed by H2O2 addition and measured after 5 hrs by DCFH-DA staining based laser confocal microscopy; assay type: functional, cell-based; settings: dose 10-20 µM, time 6.0 hrs
[28] = Acute toxicity in C57BL mouse assessed as spleen damage upto 2000 mg/kg, po administered as single dose and measured after 2 weeks by hematoxylin and eosin staining based analysis; assay type: organism-based; settings: in vivo, 336 h
BV-2 [29] = assay: Anti-neuroinflammatory activity against LPS-induced mouse BV-2 cells assessed as decrease in COX-2 protein expression pre-incubated for 1 hr followed by LPS addition and measured after 24 hrs by Western blotting analysis; assay type: functional, cell-based; settings: dose 1-10 µM
[30] = Acute toxicity in C57BL mouse assessed as kidney damage upto 2000 mg/kg, po administered as single dose and measured after 2 weeks by hematoxylin and eosin staining based analysis; assay type: organism-based; settings: in vivo, 336 h
Acetylcholinesterase [31] = target: Acetylcholinesterase (Homo sapiens, UniProt P22303); assay: Inhibition of AChE (unknown origin)
Sequence of Acetylcholinesterase (Homo sapiens, UniProt P22303) (P22303 whole entry): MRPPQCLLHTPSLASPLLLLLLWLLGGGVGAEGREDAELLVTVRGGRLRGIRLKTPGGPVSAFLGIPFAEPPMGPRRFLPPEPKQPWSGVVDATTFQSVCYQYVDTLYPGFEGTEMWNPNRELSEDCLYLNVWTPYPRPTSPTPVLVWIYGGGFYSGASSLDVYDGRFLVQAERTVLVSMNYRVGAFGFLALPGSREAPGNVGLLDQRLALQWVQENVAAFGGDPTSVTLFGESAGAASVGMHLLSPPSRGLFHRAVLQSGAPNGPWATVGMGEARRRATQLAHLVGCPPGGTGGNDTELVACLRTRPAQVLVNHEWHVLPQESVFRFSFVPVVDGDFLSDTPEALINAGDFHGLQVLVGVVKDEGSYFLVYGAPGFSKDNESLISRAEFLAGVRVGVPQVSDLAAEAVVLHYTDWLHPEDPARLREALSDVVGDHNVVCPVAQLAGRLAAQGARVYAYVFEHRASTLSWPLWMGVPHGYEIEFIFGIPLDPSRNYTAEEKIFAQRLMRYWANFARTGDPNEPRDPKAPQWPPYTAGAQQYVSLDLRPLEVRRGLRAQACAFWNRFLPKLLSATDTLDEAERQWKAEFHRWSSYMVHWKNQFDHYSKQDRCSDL

For O=C(CNS(=O)(=O)c1cccc(F)c1)Nc1ccc2c(=O)n3c(nc2c1)CCC3, the IC50 (Cholinesterase) was > 50 µM and the IC50 (Acetylcholinesterase [1]) was 4.43 µM.

For O=C(CNS(=O)(=O)c1cccc(OC(F)(F)F)c1)Nc1ccc2c(=O)n3c(nc2c1)CCC3, the IC50 (Cholinesterase) was > 50 µM and the IC50 (Acetylcholinesterase [1]) was > 50 µM.

With O=C(CNS(=O)(=O)c1c(F)cccc1F)Nc1ccc2c(=O)n3c(nc2c1)CCC3 the IC50 (Cholinesterase) was > 50 µM and the IC50 (Acetylcholinesterase [1]) was 5.12 µM.

For O=C(CNS(=O)(=O)c1c(Cl)cccc1Cl)Nc1ccc2c(=O)n3c(nc2c1)CCC3, the IC50 (Cholinesterase) was 47.7 µM and the IC50 (Acetylcholinesterase [1]) was 4.06 µM.

In the case of O=c1c2ccccc2nc2n1CCC2 [DEOXYVASICINONE], the Activity [2] is reported as “Non-Toxic”, the Activity [3] is reported as “Non-Toxic” and the IC50 (Acetylcholinesterase [4]) is reported as 82.5 µM.

For O=C(CNS(=O)(=O)c1ccc(F)c(Cl)c1)Nc1ccc2c(=O)n3c(nc2c1)CCC3, the IC50 (Cholinesterase) was > 50 µM and the IC50 (Acetylcholinesterase [1]) was 8.08 µM.

In the case of O=C(CNS(=O)(=O)c1cccc(C(F)(F)F)c1)Nc1ccc2c(=O)n3c(nc2c1)CCC3, the IC50 (Cholinesterase) is reported as > 50 µM and the IC50 (Acetylcholinesterase [1]) is reported as 20.9 µM.

For O=C(CNS(=O)(=O)c1ccccc1C(F)(F)F)Nc1ccc2c(=O)n3c(nc2c1)CCC3, the Papp at 50 µM (in vitro) was 10.5 ×10⁻⁶ cm/s, the Activity [5] was “Non-Toxic” and the IC50 (BV-2 [6]) was 3.34 µM. The Activity (BV-2 [6]; time 25.0 hrs) was “Dose-Dependent Effect”, the Activity [7] was “Non-Toxic” and the Activity (Mus musculus [8]) was “Active”. For the same compound, the Activity (Mus musculus [9]) was “Active”, the Activity [10] was “Active” and the Activity [2] was “Non-Toxic”. For the same compound, the Activity [11] was “Active”, the Activity (Mus musculus [12]) was “Active” and the Activity (BV-2 [13]) was “Dose-Dependent Effect”. For the same compound, the Activity (Mus musculus [14]) was “Active”, the Activity (BV-2 [15]) was “Non-Toxic” and the Activity (Mus musculus [16]) was “Active”. The Ki (Acetylcholinesterase [17]) was 0.24 µM, the Activity (PC-12 [18]) was “Non-Toxic” and the Activity [3] was “Non-Toxic”. For the same compound, the inhibition [19] was “Dose-Dependent Effect”, the IC50 (BV-2 [20]) was 1.69 µM and the Activity (BV-2 [20]; time 25.0 hrs) was “Dose-Dependent Effect”. The Activity (Mus musculus [21]) was “inactive”, the Activity [22] was “Active” and the Activity [23] was “Non-Toxic”. For the same compound, the IC50 (BV-2 [24]) was 8.62 µM, the Activity (BV-2 [24]; time 25.0 hrs) was “Dose-Dependent Effect” and the IC50 (Cholinesterase) was > 50 µM. For the same compound, the Activity [25] was “Non-Toxic”, the IC50 (Acetylcholinesterase [1]) was 0.24 µM and the Activity (PC-12 [26]) was “Dose-Dependent Effect”. The Activity (PC-12 [27]) was “Dose-Dependent Effect”, the Activity [28] was “Non-Toxic” and the Activity (BV-2 [29]) was “Dose-Dependent Effect”. For the same compound, the Activity [30] was “Non-Toxic”.

For CCc1ccc(S(=O)(=O)NCC(=O)Nc2ccc3c(=O)n4c(nc3c2)CCC4)cc1, the IC50 (Cholinesterase) was > 50 µM and the IC50 (Acetylcholinesterase [1]) was 31.7 µM.

With O=C(CNS(=O)(=O)c1cccc(Cl)c1)Nc1ccc2c(=O)n3c(nc2c1)CCC3 the IC50 (Cholinesterase) was > 50 µM and the IC50 (Acetylcholinesterase [1]) was 3.98 µM.

With O=C(CNS(=O)(=O)c1ccc(OC(F)(F)F)cc1)Nc1ccc2c(=O)n3c(nc2c1)CCC3 the IC50 (Cholinesterase) was > 50 µM and the IC50 (Acetylcholinesterase [1]) was > 50 µM.

For O=C(CCCCN1CCN(Cc2ccccc2)CC1)Nc1ccc2nc3n(c(=O)c2c1)CCC3, the IC50 (Acetylcholinesterase [31]) was 0.00329 µM.

With O=C(CNS(=O)(=O)c1ccc(Cl)cc1)Nc1ccc2c(=O)n3c(nc2c1)CCC3 the IC50 (Cholinesterase) was > 50 µM and the IC50 (Acetylcholinesterase [1]) was 48.3 µM.

For O=C(CNS(=O)(=O)c1cc(Cl)cc(Cl)c1)Nc1ccc2c(=O)n3c(nc2c1)CCC3, the IC50 (Cholinesterase) was > 50 µM and the IC50 (Acetylcholinesterase [1]) was > 50 µM.

For CC(C)(C)c1ccc(S(=O)(=O)NCC(=O)Nc2ccc3c(=O)n4c(nc3c2)CCC4)cc1, the IC50 (Cholinesterase) was > 50 µM and the IC50 (Acetylcholinesterase [1]) was > 50 µM.

With COc1ccc(S(=O)(=O)NCC(=O)Nc2ccc3c(=O)n4c(nc3c2)CCC4)cc1OC the IC50 (Cholinesterase) was > 50 µM and the IC50 (Acetylcholinesterase [1]) was 10.4 µM.

With O=C(CNS(=O)(=O)c1cc(Br)cc(C(F)(F)F)c1)Nc1ccc2c(=O)n3c(nc2c1)CCC3 the IC50 (Cholinesterase) was > 50 µM and the IC50 (Acetylcholinesterase [1]) was > 50 µM.

In the case of CCCc1ccc(S(=O)(=O)NCC(=O)Nc2ccc3c(=O)n4c(nc3c2)CCC4)cc1, the IC50 (Cholinesterase) is reported as > 50 µM and the IC50 (Acetylcholinesterase [1]) is reported as > 50 µM.
